For assay [1], the target named is Calcium/calmodulin-dependent protein kinase kinase 2 (Homo sapiens, UniProt Q96RR4).
The target of assay [2] is Cyclin-dependent kinase 7 (Homo sapiens, UniProt P50613).
The target of assay [3] is T1, Interleukin-1 receptor-associated kinase 3 (Homo sapiens, UniProt Q9Y616).
T1 sequence (Q9Y616 whole entry): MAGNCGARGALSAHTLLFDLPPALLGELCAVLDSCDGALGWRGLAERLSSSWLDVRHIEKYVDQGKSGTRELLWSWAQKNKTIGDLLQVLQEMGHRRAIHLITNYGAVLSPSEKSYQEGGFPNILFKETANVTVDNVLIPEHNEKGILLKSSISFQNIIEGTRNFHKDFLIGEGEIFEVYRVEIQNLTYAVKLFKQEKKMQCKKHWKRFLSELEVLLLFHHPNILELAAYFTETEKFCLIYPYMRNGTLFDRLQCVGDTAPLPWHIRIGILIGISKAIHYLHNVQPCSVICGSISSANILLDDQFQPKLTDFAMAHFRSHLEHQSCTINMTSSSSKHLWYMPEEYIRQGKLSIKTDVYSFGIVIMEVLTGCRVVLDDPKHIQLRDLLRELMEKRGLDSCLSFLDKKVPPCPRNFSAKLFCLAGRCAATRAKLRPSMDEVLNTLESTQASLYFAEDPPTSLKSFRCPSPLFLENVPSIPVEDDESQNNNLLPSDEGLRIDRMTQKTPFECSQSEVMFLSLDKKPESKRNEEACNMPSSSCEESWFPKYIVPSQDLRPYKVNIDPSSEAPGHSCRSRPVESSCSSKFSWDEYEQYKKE

Assay [4] has as its target cAMP-dependent protein kinase catalytic subunit gamma (Homo sapiens, UniProt P22612).
In assay [5] the target is T2, Acyl-CoA dehydrogenase family member 10 (Homo sapiens, UniProt Q6JQN1).
T2 sequence (Q6JQN1 whole entry): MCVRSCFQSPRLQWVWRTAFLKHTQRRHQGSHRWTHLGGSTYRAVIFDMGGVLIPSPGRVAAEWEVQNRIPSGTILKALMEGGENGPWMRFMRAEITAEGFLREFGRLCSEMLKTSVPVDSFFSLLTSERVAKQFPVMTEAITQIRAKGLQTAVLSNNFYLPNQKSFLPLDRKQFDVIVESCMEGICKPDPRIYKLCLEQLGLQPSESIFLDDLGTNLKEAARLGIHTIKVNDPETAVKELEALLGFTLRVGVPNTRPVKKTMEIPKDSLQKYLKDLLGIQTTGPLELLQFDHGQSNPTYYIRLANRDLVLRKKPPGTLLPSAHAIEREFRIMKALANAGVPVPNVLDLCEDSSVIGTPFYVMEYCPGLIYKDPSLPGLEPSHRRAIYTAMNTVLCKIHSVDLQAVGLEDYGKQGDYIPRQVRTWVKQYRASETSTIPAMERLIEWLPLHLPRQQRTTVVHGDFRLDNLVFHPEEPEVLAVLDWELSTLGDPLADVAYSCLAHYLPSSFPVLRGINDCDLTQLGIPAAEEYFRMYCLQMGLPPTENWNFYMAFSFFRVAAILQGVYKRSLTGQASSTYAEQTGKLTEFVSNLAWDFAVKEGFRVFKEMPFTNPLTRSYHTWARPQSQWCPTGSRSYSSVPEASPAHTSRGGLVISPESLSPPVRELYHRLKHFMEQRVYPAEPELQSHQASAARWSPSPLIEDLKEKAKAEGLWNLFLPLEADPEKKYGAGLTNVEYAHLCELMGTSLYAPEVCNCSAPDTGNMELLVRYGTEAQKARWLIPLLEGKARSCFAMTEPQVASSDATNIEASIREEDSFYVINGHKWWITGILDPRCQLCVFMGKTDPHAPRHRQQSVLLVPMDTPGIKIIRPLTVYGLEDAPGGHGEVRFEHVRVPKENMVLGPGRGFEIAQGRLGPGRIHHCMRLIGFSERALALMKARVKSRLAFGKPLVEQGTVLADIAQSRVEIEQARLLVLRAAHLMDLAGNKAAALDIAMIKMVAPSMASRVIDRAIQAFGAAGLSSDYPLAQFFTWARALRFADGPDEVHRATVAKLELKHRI

In assay [6] the target is T3, Dual specificity mitogen-activated protein kinase kinase 5 (Homo sapiens, UniProt Q13163).
T3 sequence (Q13163 whole entry): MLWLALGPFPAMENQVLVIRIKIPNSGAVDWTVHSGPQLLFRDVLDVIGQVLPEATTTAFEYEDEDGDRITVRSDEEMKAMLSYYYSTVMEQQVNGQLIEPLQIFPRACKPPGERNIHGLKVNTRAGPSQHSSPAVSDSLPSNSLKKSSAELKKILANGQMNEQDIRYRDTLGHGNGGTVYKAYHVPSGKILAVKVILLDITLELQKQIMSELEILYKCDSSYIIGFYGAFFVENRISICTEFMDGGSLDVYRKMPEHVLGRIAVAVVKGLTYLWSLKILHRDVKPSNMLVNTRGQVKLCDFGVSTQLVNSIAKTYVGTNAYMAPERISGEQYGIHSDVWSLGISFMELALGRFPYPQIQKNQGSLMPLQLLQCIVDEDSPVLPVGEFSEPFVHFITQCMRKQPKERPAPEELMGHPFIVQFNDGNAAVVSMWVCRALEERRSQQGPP

The target of assay [7] is T4, Ferrochelatase, mitochondrial (Homo sapiens, UniProt P22830).
T4 sequence (P22830 whole entry): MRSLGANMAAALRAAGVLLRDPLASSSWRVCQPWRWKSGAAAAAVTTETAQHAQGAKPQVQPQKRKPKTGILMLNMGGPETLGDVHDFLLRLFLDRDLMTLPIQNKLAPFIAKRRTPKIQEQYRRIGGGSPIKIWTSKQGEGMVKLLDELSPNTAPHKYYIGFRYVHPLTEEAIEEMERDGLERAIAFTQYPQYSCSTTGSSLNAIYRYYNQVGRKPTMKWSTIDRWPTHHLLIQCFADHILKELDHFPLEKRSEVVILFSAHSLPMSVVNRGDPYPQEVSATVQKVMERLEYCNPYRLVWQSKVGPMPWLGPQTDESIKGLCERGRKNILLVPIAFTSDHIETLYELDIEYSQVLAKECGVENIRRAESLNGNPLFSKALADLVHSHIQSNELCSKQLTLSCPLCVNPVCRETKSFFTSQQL

Assay [8] addresses Structural maintenance of chromosomes protein 2 (Homo sapiens, UniProt O95347).
For assay [9], the target named is S-adenosylmethionine synthase isoform type-2 (Homo sapiens, UniProt P31153).
Sequence of S-adenosylmethionine synthase isoform type-2 (P31153 whole entry, canonical isoform): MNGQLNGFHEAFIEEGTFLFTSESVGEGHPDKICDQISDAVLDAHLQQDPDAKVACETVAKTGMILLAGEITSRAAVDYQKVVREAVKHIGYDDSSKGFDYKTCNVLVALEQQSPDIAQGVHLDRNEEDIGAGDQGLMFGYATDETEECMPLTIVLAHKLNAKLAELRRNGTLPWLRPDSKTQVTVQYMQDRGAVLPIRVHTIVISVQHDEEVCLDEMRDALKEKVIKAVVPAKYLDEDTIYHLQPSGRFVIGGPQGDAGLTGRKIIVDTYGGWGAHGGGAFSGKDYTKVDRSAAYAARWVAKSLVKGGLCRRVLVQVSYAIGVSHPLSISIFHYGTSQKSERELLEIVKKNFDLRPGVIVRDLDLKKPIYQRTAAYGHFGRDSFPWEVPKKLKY
The target of assay [10] is Dual specificity tyrosine-phosphorylation-regulated kinase 1A (Homo sapiens, UniProt Q13627).

The values that follow come from ChEMBL document CHEMBL3991601, “The target landscape of clinical kinase drugs” (Science, 2017).

Calls of active or inactive are those of the source. Rule as the data show it, for most assays here: actives have a measured Kd and inactives only a lower limit.

By Kd is commonly meant the concentration at which binding is half-saturated.
Also: in the data inactive means no Kd found up to 30 µM.

Sequence of Structural maintenance of chromosomes protein 2 (O95347 whole entry, canonical isoform): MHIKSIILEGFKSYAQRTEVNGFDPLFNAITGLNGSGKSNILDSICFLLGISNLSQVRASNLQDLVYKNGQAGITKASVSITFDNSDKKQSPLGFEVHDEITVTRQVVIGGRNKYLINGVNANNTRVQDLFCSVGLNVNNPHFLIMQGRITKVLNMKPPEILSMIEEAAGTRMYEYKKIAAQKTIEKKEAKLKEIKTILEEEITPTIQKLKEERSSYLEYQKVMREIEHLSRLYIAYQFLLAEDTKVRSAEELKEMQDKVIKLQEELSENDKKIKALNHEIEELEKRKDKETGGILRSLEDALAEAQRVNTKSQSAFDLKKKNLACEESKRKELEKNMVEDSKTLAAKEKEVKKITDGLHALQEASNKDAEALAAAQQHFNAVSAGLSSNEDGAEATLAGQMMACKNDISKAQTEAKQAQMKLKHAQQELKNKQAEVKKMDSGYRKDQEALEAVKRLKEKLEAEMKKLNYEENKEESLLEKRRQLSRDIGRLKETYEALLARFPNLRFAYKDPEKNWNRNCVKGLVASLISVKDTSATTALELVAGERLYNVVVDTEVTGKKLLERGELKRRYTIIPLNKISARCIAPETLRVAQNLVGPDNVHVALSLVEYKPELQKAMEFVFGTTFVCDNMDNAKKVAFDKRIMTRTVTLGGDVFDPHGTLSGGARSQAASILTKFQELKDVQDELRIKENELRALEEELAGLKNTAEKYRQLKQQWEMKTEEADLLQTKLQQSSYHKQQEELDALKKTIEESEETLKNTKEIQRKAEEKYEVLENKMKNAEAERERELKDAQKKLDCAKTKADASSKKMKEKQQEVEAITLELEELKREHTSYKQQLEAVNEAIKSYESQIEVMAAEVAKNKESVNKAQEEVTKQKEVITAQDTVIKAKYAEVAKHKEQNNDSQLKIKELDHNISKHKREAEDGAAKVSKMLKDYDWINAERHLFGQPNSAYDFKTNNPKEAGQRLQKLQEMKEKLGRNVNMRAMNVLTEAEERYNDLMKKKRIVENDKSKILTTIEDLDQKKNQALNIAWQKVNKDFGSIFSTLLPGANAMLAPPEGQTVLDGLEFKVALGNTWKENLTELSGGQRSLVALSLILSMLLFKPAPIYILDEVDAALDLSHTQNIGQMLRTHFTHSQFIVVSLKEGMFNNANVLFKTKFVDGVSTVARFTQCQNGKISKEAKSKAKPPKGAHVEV
Sequence of Cyclin-dependent kinase 7 (P50613 whole entry): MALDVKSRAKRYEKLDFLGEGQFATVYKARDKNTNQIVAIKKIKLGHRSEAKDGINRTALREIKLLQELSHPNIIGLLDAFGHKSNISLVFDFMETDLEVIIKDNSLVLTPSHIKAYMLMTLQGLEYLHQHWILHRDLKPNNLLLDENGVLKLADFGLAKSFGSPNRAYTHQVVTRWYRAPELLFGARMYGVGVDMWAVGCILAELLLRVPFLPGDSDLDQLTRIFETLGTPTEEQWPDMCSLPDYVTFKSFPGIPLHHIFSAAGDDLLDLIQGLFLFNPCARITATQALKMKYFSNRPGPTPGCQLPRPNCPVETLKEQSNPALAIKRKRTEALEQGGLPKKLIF
Sequence of Calcium/calmodulin-dependent protein kinase kinase 2 (Q96RR4 whole entry): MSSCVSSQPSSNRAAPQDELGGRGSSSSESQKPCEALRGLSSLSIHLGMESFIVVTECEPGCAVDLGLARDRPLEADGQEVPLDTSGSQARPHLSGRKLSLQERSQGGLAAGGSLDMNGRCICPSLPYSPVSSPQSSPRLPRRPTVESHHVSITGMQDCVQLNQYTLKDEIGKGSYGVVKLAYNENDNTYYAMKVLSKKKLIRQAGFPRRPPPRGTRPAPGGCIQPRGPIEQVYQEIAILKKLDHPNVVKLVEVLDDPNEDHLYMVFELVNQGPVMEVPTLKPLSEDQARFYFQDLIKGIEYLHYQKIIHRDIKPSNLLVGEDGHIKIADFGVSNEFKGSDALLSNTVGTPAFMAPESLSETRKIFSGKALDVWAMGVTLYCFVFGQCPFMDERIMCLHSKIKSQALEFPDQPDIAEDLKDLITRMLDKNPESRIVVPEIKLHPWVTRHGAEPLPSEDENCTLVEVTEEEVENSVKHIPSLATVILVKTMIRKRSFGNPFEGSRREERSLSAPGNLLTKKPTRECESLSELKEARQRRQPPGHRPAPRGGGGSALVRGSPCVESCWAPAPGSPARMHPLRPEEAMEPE
Sequence of cAMP-dependent protein kinase catalytic subunit gamma (P22612 whole entry): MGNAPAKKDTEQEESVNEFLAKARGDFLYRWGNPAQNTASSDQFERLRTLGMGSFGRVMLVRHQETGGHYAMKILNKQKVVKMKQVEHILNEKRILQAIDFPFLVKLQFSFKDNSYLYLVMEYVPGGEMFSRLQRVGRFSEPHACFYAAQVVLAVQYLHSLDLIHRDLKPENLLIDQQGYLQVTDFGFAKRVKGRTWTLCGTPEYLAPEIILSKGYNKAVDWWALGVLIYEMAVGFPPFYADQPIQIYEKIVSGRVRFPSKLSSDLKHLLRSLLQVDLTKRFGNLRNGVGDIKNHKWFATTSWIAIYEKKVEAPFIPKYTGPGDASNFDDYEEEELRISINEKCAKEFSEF

In the case of `CO[C@H]1C[C@@H]2CC[C@@H](C)[C@@](O)(O2)C(=O)C(=O)N2CCCC[C@H]2C(=O)O[C@H]([C@H](C)C[C@@H]2CC[C@@H](OCCO)[C@H](OC)C2)CC(=O)[C@H](C)/C=C(\C)[C@@H](O)[C@@H](OC)C(=O)[C@H](C)C[C@H](C)/C=C/C=C/C=C/1C` [EVEROLIMUS], the Kd in assay [1], in [2], in assay [3], in assay [4], in assay [5] and in [6] was > 30 µM (inactive) each time. Moreover, the Kd in assay [7], in [8], in assay [9] and in [10] was > 30 µM (inactive) in each case.

Take `CC(C)Nc1cc(-c2c[nH]c(C(=O)N[C@H](CO)c3cccc(Cl)c3)c2)c(Cl)cn1` [ULIXERTINIB]: the Kd in assay [1], in assay [2], in assay [3], in assay [4], in assay [5] and in assay [6] was > 30 µM (inactive) in each case. For the same compound, the Kd in assay [7], in [8], in [9] and in assay [10] was > 30 µM (inactive) in each case.

Take `C[C@@H]1CN(Cc2ccc(F)cc2)[C@@H](C)CN1C(=O)c1cc2c(C(=O)C(=O)N(C)C)cn(C)c2cc1Cl` [TALMAPIMOD]: the Kd in assay [1], in assay [2], in assay [3], in assay [4], in assay [5] and in assay [6] was > 30 µM (inactive) throughout. Besides, the Kd in assay [7], in assay [8], in assay [9] and in [10] was > 30 µM (inactive) in each case.

On to `CCS(=O)(=O)N1CC(CC#N)(n2cc(-c3ncnc4[nH]ccc34)cn2)C1` [BARICITINIB], for which the Kd in assay [1], in assay [2], in assay [3], in assay [4], in [5] and in assay [6] was > 30 µM (inactive) throughout. Further, the Kd in [7], in assay [8], in assay [9] and in assay [10] was > 30 µM (inactive) in each case.

Turning to `COc1ccc(-c2ccc3c(N4CCOC[C@@H]4C)nc(N4CCOC[C@@H]4C)nc3n2)cc1CO` [AZD-8055], the Kd in assay [1], in [2], in assay [3], in [4], in assay [5] and in [6] was > 30 µM (inactive) each time. The Kd in assay [7] is 6.9 µM (active); in assay [8] it was > 30 µM (inactive); in [9], > 30 µM (inactive); in assay [10], > 30 µM (inactive).

For the compound `CN1CC[C@@H](c2c(O)cc(O)c3c(=O)cc(-c4ccccc4Cl)oc23)[C@@H]1CO`, the Kd in assay [1], in assay [2], in assay [3], in assay [4], in assay [5] and in [6] was > 30 µM (inactive) throughout. Besides, the Kd in assay [7], in [8], in [9] and in assay [10] was > 30 µM (inactive) in each case.

With `C=CC(=O)N1CCC(Oc2cc3c(Nc4ccc(Cl)c(Cl)c4F)ncnc3cc2OC)CC1` [POZIOTINIB], the Kd in [1], in assay [2], in assay [3], in assay [4], in assay [5] and in [6] was > 30 µM (inactive) each time. For the same compound, the Kd in assay [7], in [8], in assay [9] and in assay [10] was > 30 µM (inactive) each time.

With `Cc1ccc(-n2nc(C(C)(C)C)cc2NC(=O)NCc2cc(F)ccc2Oc2ccc3c(cnn3CCO)c2)cc1` [PEXMETINIB], the Kd in [1], in assay [2], in assay [3], in [4], in assay [5] and in [6] was > 30 µM (inactive) in each case. For the same compound, the Kd in [7], in [8], in assay [9] and in [10] was > 30 µM (inactive) in each case.

Regarding `CNC(=O)c1ccc(-c2cnc3ncc(Cc4ccc5ncccc5c4)n3n2)cc1F` [CAPMATINIB], the Kd in [1], in [2], in assay [3], in [4], in assay [5] and in [6] was > 30 µM (inactive) in each case. Moreover, the Kd in assay [7], in assay [8], in assay [9] and in assay [10] was > 30 µM (inactive) in each case.

Take `C[C@@H](Nc1cc(F)cc(F)c1)c1cc(C(=O)N(C)C)cc2c(=O)cc(N3CCOCC3)oc12` [AZD-8186]: the Kd in [1], in assay [2], in assay [3], in assay [4], in assay [5] and in assay [6] was > 30 µM (inactive) each time. Further, the Kd in assay [7], in assay [8], in assay [9] and in assay [10] was > 30 µM (inactive) throughout.
